Test results as given in patent publication US20170252383A1, “AGENT FOR PROMOTING GROWTH OF NONPATHOGENIC ORAL INDIGENOUS BACTERIA OR AGENT FOR IMPROVING ORAL BACTERIAL FLORA, AND COMPOSITION FOR ORAL USE” (HOKUTO CORPORATION, priority 2014, published 2017).

What was measured:
Assay in all cases: Growth-promoting effects on normal bacteria in oral cavity (Experimental Example 2)
Format in all cases: cell-based
Details in all cases: powder 0.01% in distilled water (triclosan concentration not printed), aerobic 37° C., 12 hours, turbidity relative to control without sample
[1] = tested on: Streptococcus mitis ATCC 47456
Protocol: (§1) Dry-ground mushroom powder suspensions obtained by dispersing the dry-ground powders of various mushrooms prepared as described above to a concentration of 0.01% in distilled water, and 4% aqueous solutions of the various mushroom extracts obtained as described above, were each added as samples in 100 μL portions to 96-well plates.
(§2) Next, 100 μL of suspensions of the bacteria shown in Tables 1 and 2 were added to the dry-ground mushroom powder suspensions and mushroom extracts serving as these samples, and the bacteria were cultured aerobically at 37° C. for 12 hours. The bacterial suspensions used were prepared by pre-culturing the bacteria in a tryptic soy medium (TS medium; Becton and Dickinson), and inoculating the pre-cultured bacteria to a 2% concentration in a 2-fold concentration TS medium.
(§3) Bacterial proliferation was measured, calculated and evaluated in the same way as in Experimental Example 1.
(§4) The indigenous oral bacteria used in evaluation were of the following three species purchased from the ATCC.
Streptococcus mitis ATCC 47456 (abbreviated below as S. mitis)
(§5) Prior to turbidity measurement, the culture fluids were stirred by shaking the plates.

[2] = tested on: Streptococcus gordonii ATCC 10558
Protocol: as §1, §2, §3, §4
Streptococcus gordonii ATCC 10558 (S. gordonii)
as §5

[3] = tested on: Streptococcus oralis ATCC 9811
Protocol: as §1, §2, §3, §4
Streptococcus oralis ATCC 9811 (abbreviated below as S. oralis)
as §5

Oc1cc(Cl)ccc1Oc1ccc(Cl)cc1Cl [Triclosan, triclosan]
0: Degree of bacterial growth due to dry-ground powders, S. mitis [1] | Degree of bacterial growth due to dry-ground powders, S. gordonii [2] | Degree of bacterial growth due to dry-ground powders, S. oralis [3]
suppressed growth: Degree of bacterial growth due to dry-ground powders, S. mitis ([1]; listed as triclosan) | Degree of bacterial growth due to dry-ground powders, S. gordonii ([2]; listed as triclosan) | Degree of bacterial growth due to dry-ground powders, S. oralis ([3]; listed as triclosan)
